Measurements published in patent US5658906A, “Cysteine protease and serine protease inhibitors” (Cephalon, Inc., priority 1996, dated 1997).

Columns and labels:
[1] = system: calpain I in Molt-4 cells (α-spectrin breakdown products); experiment: Inhibition of calpain activation in intact Molt-4 cells (calpain-generated spectrin breakdown products); format: cell-based; details: Homo sapiens, calcium and ionophore (ionomycin), read-out: % Inhibition of BDPs (10 μM)
Calpain I = biological target: T1, Calpain I (Homo sapiens, UniProt P07384); experiment: Inhibition and rate of inactivation of calpain I (Succ-Leu-Tyr-MNA hydrolysis); format: biochemical; details: mean of three or more independent analyses, corrected for substrate, k2 = kapp(1+[S]/Km), read-out: k2 (second order rate constant of inactivation), A = Calpain I
T1 construct: Calpain I was purified from human red blood cells; from tissue; host or cells: human red blood cells (packed, outdated)
T1 sequence (P07384 1-714): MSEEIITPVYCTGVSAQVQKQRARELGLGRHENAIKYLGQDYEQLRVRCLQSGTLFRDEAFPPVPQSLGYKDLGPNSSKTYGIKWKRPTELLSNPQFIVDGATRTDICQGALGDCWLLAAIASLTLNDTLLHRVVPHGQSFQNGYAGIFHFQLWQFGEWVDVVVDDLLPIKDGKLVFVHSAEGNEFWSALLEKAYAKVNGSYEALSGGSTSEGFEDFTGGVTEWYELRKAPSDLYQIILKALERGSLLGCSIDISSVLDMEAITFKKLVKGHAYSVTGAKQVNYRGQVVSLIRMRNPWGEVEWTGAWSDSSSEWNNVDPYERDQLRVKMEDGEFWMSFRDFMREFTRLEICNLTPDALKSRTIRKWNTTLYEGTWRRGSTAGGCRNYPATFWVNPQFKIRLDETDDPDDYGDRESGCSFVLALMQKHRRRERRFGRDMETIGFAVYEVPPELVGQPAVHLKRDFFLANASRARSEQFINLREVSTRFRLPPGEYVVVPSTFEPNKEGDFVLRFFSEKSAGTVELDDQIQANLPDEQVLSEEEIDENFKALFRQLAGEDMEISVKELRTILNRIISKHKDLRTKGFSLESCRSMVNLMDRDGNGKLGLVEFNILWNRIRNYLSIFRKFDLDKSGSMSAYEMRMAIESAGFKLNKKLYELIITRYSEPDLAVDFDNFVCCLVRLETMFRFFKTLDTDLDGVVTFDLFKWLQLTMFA
T1 sequence (P04632 1-268 partner): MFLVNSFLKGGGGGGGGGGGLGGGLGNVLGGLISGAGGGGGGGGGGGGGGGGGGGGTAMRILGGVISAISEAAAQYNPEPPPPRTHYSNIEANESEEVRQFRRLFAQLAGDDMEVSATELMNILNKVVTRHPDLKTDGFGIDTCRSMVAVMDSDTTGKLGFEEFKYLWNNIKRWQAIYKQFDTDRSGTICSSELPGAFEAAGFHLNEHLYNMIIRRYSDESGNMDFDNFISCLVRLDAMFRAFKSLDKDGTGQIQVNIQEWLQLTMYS

Row | SMILES | inhibition at 10 µM [1] [%] | kinact/KI (Calpain I) [M⁻¹ s⁻¹]
1 | CC(C)C[C@H](NC(=O)OCc1ccccc1)C(=O)N[C@@H](Cc1ccccc1)C(=O)COn1nnc2ccccc21 [Example 3, 1-[N-[N-Benzyloxycarbonyl-L-leucyl]-3S-4-phenyl-3-amino-2-oxobutyloxy]benzotriazole] | 67 | 150000
2 | CC[C@H](NC(=O)[C@H](CC(C)C)NC(=O)OCc1ccccc1)C(=O)COn1nnc2ccccc21 [Example 5, 1-[N-[N-Benzyloxycarbonyl-L-leucyl]-3S-3-amino-2-oxopentyloxy] benzotriazole] | 56 | 63000
3 | CC(C)C[C@H](NC(=O)OCc1ccccc1)C(=O)N[C@@H](Cc1ccccc1)C(=O)COn1nnc2cccnc21 [Example 6, 3-[N-[N-Benzyloxycarbonyl-L-leucyl]-3S-4-phenyl-3-amino-2-oxobutyloxy]-3H-triazolo[4,5-b]pyridine] | 63 | 184000
4 | CC(C)C[C@H](NC(=O)OCc1ccccc1)C(=O)N[C@@H](Cc1ccccc1)C(=O)COn1nnc2ccccc2c1=O [Example 28, 1-[N-[N-Benzyloxycarbonyl-L-leucyl]-3S-4-phenyl-3-amino-2-oxobutyloxy]-3-benzotriazin-4-one] | 68 | 122000
